Test results: patent US4874773A, “3-Aminocarbonyl-1,4-dihydropyridine-5-carboxylic acid compounds, and pharmaceutical composition containing the same” (priority 1985, dated 1989)
Where two headings read alike, the source gives them in different places.

What was measured:
isolated heart [1] = experiment: Experiment 2-2 Activity onto the isolated heart (with duration); parameters: species or system Japanese white rabbit; conditions: for Coronary perfusion Duration: time until perfusion volume returned to initial level; for activation at 3 µg/heart / inhibition at 3 µg/heart / activation at 1 µg/heart / inhibition at 1 µg/heart: Oryctolagus cuniculus; for activation at 3 µg/heart / activation at 1 µg/heart: read-out: Coronary perfusion Increase
Protocol: Japanese white rabbit (weighing 2.2-2.5 kg) was anesthetized by introvenous injection of nembutal (20 mg/kg) and then sacrificed by bleeding from common carotid artery. […] There were measured the perfusion volume with a drop-counting meter (ET-600G type, manufactured by Nippon Koden K.K.) and the heart pulse and the contractility via a force-displacement transducer (FD pick up, SB-IT type, manufactured by Nippon Koden K.K.) (for measuring heart pulse, an instant pulse meter (AT-601G type, minufactured by Nippon Koden K.K.) being further used).
The test compounds were dissolved in ethanol, and the solution was diluted in 100-fold with purified water, and the diluted solution was administered in an amount of 0.1 ml/heart (i.e. 3 μg/heart).
The activity was measured in the same manner as described in Experiment 2-1 except that in some test compounds, the dose was in 1 μg/heart. Besides, the duration of the activity was evaluated by counting the time until the coronary perfusion volume became to the initial level before the administration of the test compound.

isolated aorta = experiment: Experiment 3 Relaxing activity on the isolated aorta (30 mM KCl contracted); parameters: species or system Japanese white rabbit; conditions: for EC50: Oryctolagus cuniculus, 30 mM KCl contraction, maximum relaxation by papaverine = 100%, read-out: EC50 (concentration for 50% relaxation); for relaxing / vasodilating activity on isolated aorta (in words): Table 8, comparison with nifedipine and nicardipine hydrochloride, etc. where stated
isolated heart [2] = experiment: Experiment 2-1 Activity on isolated heart; parameters: species or system Japanese white rabbit; conditions: Oryctolagus cuniculus, 3 μg/heart; for activation at 3 µg/heart: read-out: Increase of coronary perfusion; for inhibition at 3 µg/heart, 3 µg/heart: read-out: Inhibitory rate of systole; for inhibition at 3 µg/heart: read-out: Reducing rate of heart pulse
Protocol: Japanese white rabbit (weighing 2.2-2.5 kg) was anesthetized by introvenous injection of nembutal (20 mg/kg) and then sacrificed by bleeding from common carotid artery. […] After stabilizing the heart preparation for 90 minutes, the test compound was administered. There were measured the perfusion volume with a drop-counting meter (ET-600G type, manufactured by Nippon Koden K.K.) and the heart pulse and the contractility via a force-displacement transducer (FD pick up, SB-IT type, manufactured by Nippon Koden K.K.) (for measuring heart pulse, an instant pulse meter (AT-601G type, minufactured by Nippon Koden K.K.) being further used).

[3] = system: Spontaneously hypertensive male rats; experiment: Experiment 1-1 Hypotensive activity (oral, conscious spontaneously hypertensive rats); assay type: in vivo, rat; conditions: 10 mg/kg oral
Protocol: Spontaneously hypertensive male rats (13-15 week age, one group: 3 rats) were used. […] The rats were fixed in a Howlman cage without fasting, and the femoral arterial pressure was measured by a direct method without anesthesia with a cannula which was previously inserted into the femoral artery of the animal, via a pressure transducer (MPU-0.5, manufactured by Nippon Koden K.K.). The test compounds were orally administered in the form of a suspension in 0.5% methyl cellulose solution in a dose of 10 mg/kg (in some compounds, 3 mg/kg). In the control group, only 0.5% methyl cellulose solution was administered likewise. The blood pressure was measured for 5 hours after the administration of test compounds.

[4] = 3 μg/heart, read-out: Inhibitory rate of systole
[5] = 3 μg/heart, read-out: Reducing rate of heart pulse
[6] = 1 μg/heart, read-out: Inhibitory rate of systole
[7] = 1 μg/heart, read-out: Reducing rate of heart pulse

| SMILES | Coronary perfusion Duration (isolated heart [1]; 3 μg/heart) | activation at 3 µg/heart (isolated heart [1]; 3 μg/heart) | inhibition at 3 µg/heart (isolated heart [1]; [4]) | inhibition at 3 µg/heart (isolated heart [1]; [5]) | EC50 (isolated aorta) | also measured |
| --- | --- | --- | --- | --- | --- | --- |
| CC1=C(C(=O)NC2CC2)C(c2ccccc2[N+](=O)[O-])C(C(=O)OCCCC(C)C)=C(C)N1 (stereo not shown) [Example 96] | < 10 min | 20% | 10% | 0% |  |  |
| CCCCCOC(=O)C1=C(C)NC(C)=C(C(=O)NC(C)C)C1c1cccc([N+](=O)[O-])c1 (stereo not shown) [Example 66] |  |  |  |  | 70 nM | relaxing / vasodilating activity on isolated aorta (in words) (isolated aorta): the same or more potent activity; activation at 3 µg/heart (isolated heart [2]): 16%; inhibition at 3 µg/heart, 3 µg/heart (isolated heart [2]): 15%; inhibition at 3 µg/heart (isolated heart [2]): 13% |
| CCCOC(=O)C1=C(C)NC(C)=C(C(=O)NC(C)C)C1c1cccc([N+](=O)[O-])c1 (stereo not shown) [Example 62] |  |  |  |  | 150 nM | activation at 3 µg/heart (isolated heart [2]): 20%; inhibition at 3 µg/heart, 3 µg/heart (isolated heart [2]): 2%; inhibition at 3 µg/heart (isolated heart [2]): 6% |
| CCNC(=O)C1=C(C)NC(C)=C(C(=O)OCCC(C)C)C1c1ccccc1[N+](=O)[O-] (stereo not shown) [Example 33] |  |  |  |  | 31 nM | relaxing / vasodilating activity on isolated aorta (in words) (isolated aorta): the same or more potent activity |
| CCOC(=O)C1=C(C)NC(C)=C(C(N)=O)C1c1ccccc1[N+](=O)[O-] (stereo not shown) [Example 9] |  |  |  |  | 670 nM |  |
| CCCCCCCOC(=O)C1=C(C)NC(C)=C(C(=O)NC2CC2)C1c1ccccc1[N+](=O)[O-] (stereo not shown) [Example 81, n-heptyl 2,6-dimethyl-3-cyclopropylaminocarbonyl-4-(o-nitrophenyl)-1,4-dihydropyridine-5-carboxylate] | 10 to 15 min | 15% | 15% | 0% |  |  |
| CCCCCOC(=O)C1=C(C)NC(C)=C(C(=O)NCCC)C1c1ccccc1[N+](=O)[O-] (stereo not shown) [Example 39] |  |  |  |  | 40 nM | relaxing / vasodilating activity on isolated aorta (in words) (isolated aorta): the same or more potent activity |
| CCC(CC)OC(=O)C1=C(C)NC(C)=C(C(=O)NC(C)C)C1c1ccccc1[N+](=O)[O-] (stereo not shown) [Example 50] |  |  |  |  | 700 nM |  |
| CC1=C(C(N)=O)C(c2ccccc2[N+](=O)[O-])C(C(=O)OC(C)C(C)C)=C(C)N1 (stereo not shown) [Example 18] |  |  |  |  | 710 nM |  |
| CCCCCCOC(=O)C1=C(C)NC(C)=C(C(=O)NCCC)C1c1ccccc1[N+](=O)[O-] (stereo not shown) [Example 41] |  |  |  |  | 130 nM |  |
| CC1=C(C(=O)NC(C)C)C(c2cccc([N+](=O)[O-])c2)C(C(=O)OC(C)C)=C(C)N1 (stereo not shown) [Example 63] |  |  |  |  |  | Recovering time [3]: 1.5 h; Time for recovering 1/2 of max. hypotension [3]: 1.0 h; Time until reaching to max. hypotension [3]: 15 min; Maximum hypotension ([3]; mean blood pressure): 7 mmHg |
| CCCCCOC(=O)C1=C(C)NC(C)=C(C(=O)NC2CC2)C1c1ccccc1[N+](=O)[O-] (stereo not shown) [Example 93] | 20 min | 20% | 20% | 15% |  |  |
| CCCOC(=O)C1=C(C)NC(C)=C(C(=O)NC2CC2)C1c1ccccc1[N+](=O)[O-] (stereo not shown) [Example 89] | < 10 min | 30% | 35% | 30% |  |  |
| CCCOC(=O)C1=C(C)NC(C)=C(C(N)=O)C1c1ccccc1[N+](=O)[O-] (stereo not shown) [Example 10] |  |  |  |  | 400 nM |  |
| CC1=C(C(N)=O)C(c2ccccc2[N+](=O)[O-])C(C(=O)OC(C)C)=C(C)N1 (stereo not shown) [Example 11] |  |  |  |  | 320 nM |  |
| COC(=O)C1=C(C)NC(C)=C(C(=O)NC2CCCC2)C1c1ccccc1[N+](=O)[O-] (stereo not shown) [Example 84, methyl 2,6-dimethyl-3-cyclopentylaminocarbonyl-4-(o-nitrophenyl)-1,4-dihydropyridine-5-carboxylate] |  |  |  |  |  | Coronary perfusion Duration (isolated heart [1]; 1 μg/heart): 20 to 30 min; activation at 1 µg/heart (isolated heart [1]; 1 μg/heart): 30%; inhibition at 1 µg/heart (isolated heart [1]; [6]): 15%; inhibition at 1 µg/heart (isolated heart [1]; [7]): 20% |
| CCCCCCCOC(=O)C1=C(C)NC(C)=C(C(=O)NCCC)C1c1ccccc1[N+](=O)[O-] (stereo not shown) [Example 42] |  |  |  |  | 380 nM |  |
| CCCCNC(=O)C1=C(C)NC(C)=C(C(=O)OCCCC)C1c1cccc([N+](=O)[O-])c1 (stereo not shown) [Example 69] |  |  |  |  | 570 nM |  |
| CC1=C(C(=O)NC2CC2)C(c2ccccc2[N+](=O)[O-])C(C(=O)OCCC(C)C)=C(C)N1 (stereo not shown) [Example 94] | < 10 min | 15% | 10% | 0% |  |  |
| CCCCCCOC(=O)C1=C(C)NC(C)=C(C(=O)NC2CC2)C1c1ccccc1[N+](=O)[O-] (stereo not shown) [Example 95] | 10 to 15 min | 20% | 15% | 10% |  |  |
| CCNC(=O)C1=C(C)NC(C)=C(C(=O)OC)C1c1ccccc1[N+](=O)[O-] (stereo not shown) [D, reference compound] |  |  |  |  |  | activation at 3 µg/heart (isolated heart [2]): 20%; inhibition at 3 µg/heart, 3 µg/heart (isolated heart [2]): 15%; inhibition at 3 µg/heart (isolated heart [2]): 5% |
| CCCCCOC(=O)C1=C(C)NC(C)=C(C(N)=O)C1c1ccccc1[N+](=O)[O-] (stereo not shown) [Example 16] |  |  |  |  | 610 nM |  |
| CCCCCCCCOC(=O)C1=C(C)NC(C)=C(C(=O)NC2CCCC2)C1c1ccccc1[N+](=O)[O-] (stereo not shown) [Example 86, n-octyl 2,6-dimethyl-3-cyclopentylaminocarbonyl-4-(o-nitrophenyl)-1,4-dihydropyridine-5-carboxylate] |  |  |  |  |  | Coronary perfusion Duration (isolated heart [1]; 1 μg/heart): 60 min; activation at 1 µg/heart (isolated heart [1]; 1 μg/heart): 50%; inhibition at 1 µg/heart (isolated heart [1]; [6]): 15%; inhibition at 1 µg/heart (isolated heart [1]; [7]): 20% |
| CC1=C(C(=O)NC2CC2)C(c2ccccc2[N+](=O)[O-])C(C(=O)OC(C)C)=C(C)N1 (stereo not shown) [Example 90] | < 10 min | 15% | 10% | 5% |  |  |
| CCOC(=O)C1=C(C)NC(C)=C(C(=O)NC2CC2)C1c1ccccc1[N+](=O)[O-] (stereo not shown) [Example 88] | < 10 min | 35% | 30% | 30% |  |  |
| CCCCCCCCCOC(=O)C1=C(C)NC(C)=C(C(=O)NC2CCCC2)C1c1ccccc1[N+](=O)[O-] (stereo not shown) [Example 87, n-nonyl 2,6-dimethyl-3-cyclopentylaminocarbonyl-4-(o-nitrophenyl)-1,4-dihydropyridine-5-carboxylate] |  |  |  |  |  | Coronary perfusion Duration (isolated heart [1]; 1 μg/heart): 60 min; activation at 1 µg/heart (isolated heart [1]; 1 μg/heart): 40%; inhibition at 1 µg/heart (isolated heart [1]; [6]): 15%; inhibition at 1 µg/heart (isolated heart [1]; [7]): 5% |
| COC(=O)C1=C(C)NC(C)=C(C(=O)NC2CC2)C1c1ccccc1[N+](=O)[O-] (stereo not shown) [Example 80, methyl 2,6-dimethyl-3-cyclopropylaminocarbonyl-4-(o-nitrophenyl)-1,4-dihydropyridine-5-carboxylate] | < 10 min | 25% | 15% | 5% |  |  |
| CC1=C(C(=O)NC2CC2)C(c2ccccc2[N+](=O)[O-])C(C(=O)OCC(C)C)=C(C)N1 (stereo not shown) [Example 92] | < 10 min | 10% | 10% | 5% |  |  |
| CCCNC(=O)C1=C(C)NC(C)=C(C(=O)OCCC(C)C)C1c1ccccc1[N+](=O)[O-] (stereo not shown) [Example 40] |  |  |  |  |  | activation at 3 µg/heart (isolated heart [2]): 25%; inhibition at 3 µg/heart, 3 µg/heart (isolated heart [2]): 14%; inhibition at 3 µg/heart (isolated heart [2]): 1% |
| CCCCOC(=O)C1=C(C)NC(C)=C(C(=O)NC2CC2)C1c1ccccc1[N+](=O)[O-] (stereo not shown) [Example 91] | < 10 min | 20% | 35% | 10% |  |  |
